What all share (assay): Kinase selectivity, DiscoverX scanMAX Kinase assay panel (% control)
What all share (type): binding

The target of assay [1] is T1, kinases of the scanMAX Kinase assay panel (Homo sapiens, UniProt P45985).
T1 construct: purchased DiscoverX Co. (contract measurement) scanMAX Kinase assay panel
T1 sequence (P45985 1-399): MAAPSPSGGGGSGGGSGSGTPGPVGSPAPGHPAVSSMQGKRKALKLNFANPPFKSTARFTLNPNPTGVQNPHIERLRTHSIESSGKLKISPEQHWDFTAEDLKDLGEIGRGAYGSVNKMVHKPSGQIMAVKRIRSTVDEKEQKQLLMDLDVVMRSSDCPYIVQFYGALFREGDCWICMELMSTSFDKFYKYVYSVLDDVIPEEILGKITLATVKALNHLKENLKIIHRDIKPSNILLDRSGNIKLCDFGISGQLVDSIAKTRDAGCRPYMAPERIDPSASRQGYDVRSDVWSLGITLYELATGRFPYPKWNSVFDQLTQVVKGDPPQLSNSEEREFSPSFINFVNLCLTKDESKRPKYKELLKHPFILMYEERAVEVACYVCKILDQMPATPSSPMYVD
Particulars: MEK4; 1 uM. In short, it runs like this: (§1)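 Read-out is % control, normalised so a positive-control compound sits at 0% and DMSO at 100%: (test − positive)/(negative − positive)×100. Each kinase received the compound at 1 uM in DMSO. A value below 35% counts as activity.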

The target of assay [2] is T2, kinases of the scanMAX Kinase assay panel (Homo sapiens, UniProt Q9UF33).
T2 construct: purchased DiscoverX Co. (contract measurement) scanMAX Kinase assay panel
T2 sequence (Q9UF33 23-1036): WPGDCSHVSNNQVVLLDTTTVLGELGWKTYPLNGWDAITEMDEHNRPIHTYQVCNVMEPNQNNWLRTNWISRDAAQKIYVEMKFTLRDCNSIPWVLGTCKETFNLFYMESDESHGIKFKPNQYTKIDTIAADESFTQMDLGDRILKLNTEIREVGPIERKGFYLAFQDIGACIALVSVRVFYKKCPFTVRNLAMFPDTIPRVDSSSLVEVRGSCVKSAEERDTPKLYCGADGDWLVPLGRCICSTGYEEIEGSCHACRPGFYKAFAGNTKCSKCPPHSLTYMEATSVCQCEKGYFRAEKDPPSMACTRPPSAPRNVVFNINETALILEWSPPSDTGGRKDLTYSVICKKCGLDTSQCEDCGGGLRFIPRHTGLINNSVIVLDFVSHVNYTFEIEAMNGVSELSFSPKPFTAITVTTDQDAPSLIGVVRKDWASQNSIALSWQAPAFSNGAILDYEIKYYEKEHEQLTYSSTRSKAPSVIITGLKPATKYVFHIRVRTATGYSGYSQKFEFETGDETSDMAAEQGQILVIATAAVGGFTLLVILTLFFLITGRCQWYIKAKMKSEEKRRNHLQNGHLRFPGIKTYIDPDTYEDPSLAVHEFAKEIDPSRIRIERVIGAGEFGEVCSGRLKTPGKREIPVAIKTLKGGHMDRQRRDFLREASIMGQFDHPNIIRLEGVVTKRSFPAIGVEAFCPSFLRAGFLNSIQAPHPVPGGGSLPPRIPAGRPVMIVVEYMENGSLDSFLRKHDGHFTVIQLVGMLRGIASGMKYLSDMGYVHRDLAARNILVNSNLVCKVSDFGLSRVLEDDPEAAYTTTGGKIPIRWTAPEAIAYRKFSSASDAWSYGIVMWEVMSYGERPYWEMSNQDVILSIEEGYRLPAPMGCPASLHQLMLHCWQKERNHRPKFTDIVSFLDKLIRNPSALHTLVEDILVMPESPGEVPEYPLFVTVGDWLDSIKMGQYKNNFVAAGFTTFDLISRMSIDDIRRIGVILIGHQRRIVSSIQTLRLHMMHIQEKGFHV
Particulars: EPHA6; 1 uM. An outline of the steps:
as §1

In assay [3] the target is T3, kinases of the scanMAX Kinase assay panel (Homo sapiens, UniProt O96013).
T3 construct: purchased DiscoverX Co. (contract measurement) scanMAX Kinase assay panel
T3 sequence (O96013 whole entry): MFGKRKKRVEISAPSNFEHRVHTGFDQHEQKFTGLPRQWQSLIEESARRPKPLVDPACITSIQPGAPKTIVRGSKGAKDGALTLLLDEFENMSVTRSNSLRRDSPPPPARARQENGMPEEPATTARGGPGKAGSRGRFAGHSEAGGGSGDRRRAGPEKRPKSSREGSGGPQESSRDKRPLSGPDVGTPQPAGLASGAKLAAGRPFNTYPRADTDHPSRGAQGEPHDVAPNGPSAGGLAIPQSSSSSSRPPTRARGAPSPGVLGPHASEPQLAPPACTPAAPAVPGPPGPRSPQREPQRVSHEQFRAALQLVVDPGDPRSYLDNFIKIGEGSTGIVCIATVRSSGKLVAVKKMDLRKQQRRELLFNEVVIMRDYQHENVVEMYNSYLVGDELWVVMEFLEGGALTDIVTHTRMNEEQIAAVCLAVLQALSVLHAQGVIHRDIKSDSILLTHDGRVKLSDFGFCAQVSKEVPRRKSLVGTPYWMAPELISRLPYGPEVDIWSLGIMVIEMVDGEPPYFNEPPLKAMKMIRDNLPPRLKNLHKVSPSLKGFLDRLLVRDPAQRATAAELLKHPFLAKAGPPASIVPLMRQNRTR
Particulars: PAK4; 1 uM. An outline of the steps: as §1

In assay [4] the target is T4, kinases of the scanMAX Kinase assay panel (Homo sapiens, UniProt P09619).
T4 construct: purchased DiscoverX Co. (contract measurement) scanMAX Kinase assay panel
T4 sequence (P09619 33-1106): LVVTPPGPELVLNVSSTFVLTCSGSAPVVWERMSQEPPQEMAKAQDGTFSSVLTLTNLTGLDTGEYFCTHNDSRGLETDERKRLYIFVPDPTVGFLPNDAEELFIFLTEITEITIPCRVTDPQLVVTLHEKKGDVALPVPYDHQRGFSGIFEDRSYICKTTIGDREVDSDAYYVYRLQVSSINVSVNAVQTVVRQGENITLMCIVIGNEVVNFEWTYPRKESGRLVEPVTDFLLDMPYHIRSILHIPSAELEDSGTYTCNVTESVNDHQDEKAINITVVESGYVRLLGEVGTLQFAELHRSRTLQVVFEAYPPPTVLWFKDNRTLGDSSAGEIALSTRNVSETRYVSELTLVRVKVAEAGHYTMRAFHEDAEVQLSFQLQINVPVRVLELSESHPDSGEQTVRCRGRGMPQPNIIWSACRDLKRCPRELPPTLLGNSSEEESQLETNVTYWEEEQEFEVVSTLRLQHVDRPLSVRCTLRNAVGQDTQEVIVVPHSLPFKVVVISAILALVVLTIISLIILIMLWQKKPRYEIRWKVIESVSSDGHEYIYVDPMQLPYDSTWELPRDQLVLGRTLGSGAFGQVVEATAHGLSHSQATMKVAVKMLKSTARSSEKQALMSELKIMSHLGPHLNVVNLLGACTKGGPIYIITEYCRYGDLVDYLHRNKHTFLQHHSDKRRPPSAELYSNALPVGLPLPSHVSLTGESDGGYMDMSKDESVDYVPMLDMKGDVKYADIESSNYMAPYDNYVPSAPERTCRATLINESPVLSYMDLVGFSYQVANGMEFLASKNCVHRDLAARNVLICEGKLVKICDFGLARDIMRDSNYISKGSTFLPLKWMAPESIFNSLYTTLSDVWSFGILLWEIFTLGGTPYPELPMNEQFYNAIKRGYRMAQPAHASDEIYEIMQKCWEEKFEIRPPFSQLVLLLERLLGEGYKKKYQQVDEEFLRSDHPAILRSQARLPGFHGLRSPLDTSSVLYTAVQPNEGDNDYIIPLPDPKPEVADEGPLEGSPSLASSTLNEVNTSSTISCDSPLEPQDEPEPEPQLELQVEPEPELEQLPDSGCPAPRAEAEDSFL
Particulars: PDGFRB; 1 uM. In short, it runs like this:
as §1

The target in assay [5] is T5, kinases of the scanMAX Kinase assay panel (Homo sapiens, UniProt P42685).
T5 construct: purchased DiscoverX Co. (contract measurement) scanMAX Kinase assay panel
T5 sequence (P42685 whole entry): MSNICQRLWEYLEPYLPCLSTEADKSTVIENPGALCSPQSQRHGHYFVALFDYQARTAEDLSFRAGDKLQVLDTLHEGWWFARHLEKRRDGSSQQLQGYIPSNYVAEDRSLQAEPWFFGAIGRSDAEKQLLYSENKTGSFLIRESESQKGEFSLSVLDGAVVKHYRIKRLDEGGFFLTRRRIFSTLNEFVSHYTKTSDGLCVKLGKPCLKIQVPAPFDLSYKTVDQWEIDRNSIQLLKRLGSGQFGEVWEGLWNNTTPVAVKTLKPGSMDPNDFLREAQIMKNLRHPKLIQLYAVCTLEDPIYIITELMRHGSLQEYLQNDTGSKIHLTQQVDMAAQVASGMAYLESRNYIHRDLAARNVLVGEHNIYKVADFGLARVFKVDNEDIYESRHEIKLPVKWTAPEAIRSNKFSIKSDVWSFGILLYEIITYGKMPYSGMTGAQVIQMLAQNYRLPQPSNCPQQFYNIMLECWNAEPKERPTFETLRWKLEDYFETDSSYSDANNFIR
Particulars: FRK; 1 uM. In short, it runs like this:
as §1

Assay [6] addresses T6, kinases of the scanMAX Kinase assay panel (Homo sapiens, UniProt P25098).
T6 construct: purchased DiscoverX Co. (contract measurement) scanMAX Kinase assay panel
T6 sequence (P25098 1-689): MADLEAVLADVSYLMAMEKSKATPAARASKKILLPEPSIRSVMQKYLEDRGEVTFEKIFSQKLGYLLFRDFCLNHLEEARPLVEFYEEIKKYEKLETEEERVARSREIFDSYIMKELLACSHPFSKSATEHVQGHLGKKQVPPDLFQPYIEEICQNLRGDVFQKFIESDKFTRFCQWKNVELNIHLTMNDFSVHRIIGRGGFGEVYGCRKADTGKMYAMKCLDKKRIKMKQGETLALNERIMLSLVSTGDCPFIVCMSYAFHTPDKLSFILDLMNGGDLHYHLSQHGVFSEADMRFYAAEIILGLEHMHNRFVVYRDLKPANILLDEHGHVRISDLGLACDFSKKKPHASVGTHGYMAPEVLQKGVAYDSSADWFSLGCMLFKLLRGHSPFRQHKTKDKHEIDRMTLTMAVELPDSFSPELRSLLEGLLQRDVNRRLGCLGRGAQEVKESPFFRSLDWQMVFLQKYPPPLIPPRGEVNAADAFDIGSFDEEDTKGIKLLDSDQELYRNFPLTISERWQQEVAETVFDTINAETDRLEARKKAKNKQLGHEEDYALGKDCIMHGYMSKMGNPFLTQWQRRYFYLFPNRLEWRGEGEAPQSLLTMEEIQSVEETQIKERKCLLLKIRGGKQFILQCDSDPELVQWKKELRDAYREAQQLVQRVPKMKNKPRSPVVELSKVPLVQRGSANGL
Particulars: GRK2; 1 uM. In short, it runs like this:
as §1

Assay [7] has as its target T7, kinases of the scanMAX Kinase assay panel (Homo sapiens, UniProt Q9UM73, C1156Y).
T7 construct: purchased DiscoverX Co. (contract measurement) scanMAX Kinase assay panel
Conditions: ALK(C1156Y); 1 uM. An outline of the steps: as §1

Assay [8] addresses T8, kinases of the scanMAX Kinase assay panel (Homo sapiens, UniProt Q15349).
T8 construct: purchased DiscoverX Co. (contract measurement) scanMAX Kinase assay panel
Particulars: 1 uM in DMSO. An outline of the steps:
as §1

Setting [9] is: kinase RSK3(Kin.Dom.1-N-terminal), read-out: % control, RSK3(Kin.Dom.1-N-terminal).
Setting [10] is: kinase RSK3(Kin.Dom.2-C-terminal), read-out: % control, RSK3(Kin.Dom.2-C-terminal).

Data on three compounds can be found in patent US11208412B2 (DAEGU-GYEONGBUK MEDICAL INNOVATION FOUNDATION, priority 2017, dated 2021).

Where two headings read alike, the source gives them in different places.

T8 sequence (Q15349 whole entry): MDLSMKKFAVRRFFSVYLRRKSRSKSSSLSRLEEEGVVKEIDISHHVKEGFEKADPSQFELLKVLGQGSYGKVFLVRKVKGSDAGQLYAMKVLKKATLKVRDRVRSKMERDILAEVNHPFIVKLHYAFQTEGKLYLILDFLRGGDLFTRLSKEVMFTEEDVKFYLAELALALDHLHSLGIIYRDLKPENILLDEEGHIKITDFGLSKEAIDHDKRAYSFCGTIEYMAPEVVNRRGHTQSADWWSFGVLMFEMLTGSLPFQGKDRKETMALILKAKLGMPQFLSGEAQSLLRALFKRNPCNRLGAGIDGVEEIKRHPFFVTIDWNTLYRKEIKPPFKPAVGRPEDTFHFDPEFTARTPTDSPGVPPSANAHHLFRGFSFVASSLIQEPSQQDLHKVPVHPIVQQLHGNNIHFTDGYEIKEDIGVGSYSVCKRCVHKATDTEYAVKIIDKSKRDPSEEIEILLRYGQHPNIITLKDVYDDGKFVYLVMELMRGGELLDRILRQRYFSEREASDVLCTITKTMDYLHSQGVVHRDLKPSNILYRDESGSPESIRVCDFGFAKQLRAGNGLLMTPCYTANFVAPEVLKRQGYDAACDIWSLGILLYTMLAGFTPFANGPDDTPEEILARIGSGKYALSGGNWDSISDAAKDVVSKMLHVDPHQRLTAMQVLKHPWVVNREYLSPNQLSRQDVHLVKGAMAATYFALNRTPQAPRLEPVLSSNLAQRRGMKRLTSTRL
T7 sequence (Q9UM73 19-1620 C1156Y): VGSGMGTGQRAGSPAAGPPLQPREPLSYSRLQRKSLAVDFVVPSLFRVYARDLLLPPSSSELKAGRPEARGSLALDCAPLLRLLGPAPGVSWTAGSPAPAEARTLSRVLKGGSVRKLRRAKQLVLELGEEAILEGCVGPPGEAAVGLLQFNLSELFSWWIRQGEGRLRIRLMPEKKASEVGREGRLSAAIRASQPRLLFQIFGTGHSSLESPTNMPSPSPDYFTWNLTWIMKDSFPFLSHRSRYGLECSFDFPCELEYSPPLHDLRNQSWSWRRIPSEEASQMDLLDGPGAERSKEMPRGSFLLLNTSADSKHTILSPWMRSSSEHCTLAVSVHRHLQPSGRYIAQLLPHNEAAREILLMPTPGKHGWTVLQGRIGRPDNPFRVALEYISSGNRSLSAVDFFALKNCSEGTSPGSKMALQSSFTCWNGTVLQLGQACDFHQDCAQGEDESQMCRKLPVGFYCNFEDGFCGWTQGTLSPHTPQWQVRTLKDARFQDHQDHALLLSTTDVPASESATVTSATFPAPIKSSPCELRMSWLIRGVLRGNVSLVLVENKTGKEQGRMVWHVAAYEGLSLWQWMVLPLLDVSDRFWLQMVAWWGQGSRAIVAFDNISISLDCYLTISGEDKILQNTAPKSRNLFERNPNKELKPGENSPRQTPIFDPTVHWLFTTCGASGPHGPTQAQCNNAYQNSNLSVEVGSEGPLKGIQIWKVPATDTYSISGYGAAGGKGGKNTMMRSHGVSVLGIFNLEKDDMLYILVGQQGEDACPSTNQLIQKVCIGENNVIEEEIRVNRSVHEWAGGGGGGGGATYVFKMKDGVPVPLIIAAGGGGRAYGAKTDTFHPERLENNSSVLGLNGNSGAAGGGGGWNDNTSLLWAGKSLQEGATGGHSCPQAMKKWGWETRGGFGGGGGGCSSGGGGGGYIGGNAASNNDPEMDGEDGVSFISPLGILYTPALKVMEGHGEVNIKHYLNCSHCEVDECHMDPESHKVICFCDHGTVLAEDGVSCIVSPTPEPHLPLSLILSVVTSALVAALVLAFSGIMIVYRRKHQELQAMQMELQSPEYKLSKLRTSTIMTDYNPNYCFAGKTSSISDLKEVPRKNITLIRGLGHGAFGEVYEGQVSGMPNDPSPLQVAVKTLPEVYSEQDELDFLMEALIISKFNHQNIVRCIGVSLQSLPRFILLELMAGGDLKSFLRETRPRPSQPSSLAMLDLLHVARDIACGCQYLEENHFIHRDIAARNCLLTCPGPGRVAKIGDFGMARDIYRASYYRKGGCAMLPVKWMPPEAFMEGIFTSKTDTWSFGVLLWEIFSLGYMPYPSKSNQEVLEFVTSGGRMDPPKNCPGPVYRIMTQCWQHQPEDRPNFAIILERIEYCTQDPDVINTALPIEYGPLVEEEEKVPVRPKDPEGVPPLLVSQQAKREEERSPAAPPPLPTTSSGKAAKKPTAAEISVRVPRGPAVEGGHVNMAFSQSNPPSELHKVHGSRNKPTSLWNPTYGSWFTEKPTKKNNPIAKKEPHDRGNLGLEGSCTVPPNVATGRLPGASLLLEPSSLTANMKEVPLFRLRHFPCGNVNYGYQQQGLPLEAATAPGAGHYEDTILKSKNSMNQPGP

On to `CNc1nc(Nc2ccc(C(=O)N3CCOCC3)cc2OC)nc2[nH]cc(C#N)c12` [Example 1, 2-((2-methoxy-4-(morpholine-4-carbonyl)phenyl)amino)-4-(methylamino)-7H-pyrrolo[2,3-d]pyrimidine-5-carbonitrile], for which the remaining binding at 1 µM in assay [1] turned out to be 0%; in assay [2] it was 93%; in assay [3], 79%; in assay [4], 84%; in assay [5], 97%; in assay [6], 97%. In addition, the remaining binding at 1 µM in assay [7] stood at 9.3%; in assay [8] (setting [9]) it was 90%; in assay [8] (setting [10]) it was 23%.

As to `CC1(Nc2nc(Nc3cnn([C@H]4CCN(C5COC5)C[C@@H]4F)c3Cl)nc3[nH]cc(C#N)c23)CC1` [Example 52, 2-((5-chloro-1-((3S,4S)-3-fluoro-1-(oxetane-3-yl)piperidine-4-yl)-1H-pyrazole-4-yl)amino)((1-methylcyclopropyl)amino)-7H-pyrrolo[2,3-d]pyrimidine-5-carbonitrile], the remaining binding at 1 µM in assay [1] worked out at 0%; in assay [2], 43%; in assay [3], 3.4%; in assay [4], 0.35%; in assay [5] it was 49%; in assay [6] it was 45%. The remaining binding at 1 µM in assay [7] was 0.8%; in assay [8] (setting [9]), 4.3%; in assay [8] (setting [10]) it was 28%.

For the compound `CCNc1nc(Nc2ccc(C(=O)N3CCC(N4CCOCC4)CC3)cc2OC)nc2[nH]cc(C(F)(F)F)c12` [Example 104, (4-((4-(ethylamino)-5-(trifluoromethyl)-7H-pyrrolo[2,3-d]pyrimidine-2-yl)amino)-3-methoxyphenyl)(4-morpholinopiperidine-1-yl)methanone], the remaining binding at 1 µM in assay [1] is 16%; in assay [2], 100%; in assay [3], 100%; in assay [4] it was 60%; in assay [5] it was 77%; in assay [6], 96%. The remaining binding at 1 µM in assay [7] worked out at 16%; in assay [8] (setting [9]), 100%; in assay [8] (setting [10]), 66%.
